row,Compound,melting point [°C]
1,CNC(=O)c1cc2c(c(F)c1F)N(c1ccc(I)cc1C)COC2=O,219 to 223
2,CC(C)(C)OC(=O)Nc1cc(N)cc(Cl)c1,85 to 87
3,CCOC(=O)c1cc(N2C(=O)C3=C(CCCC3)C2=O)ccc1O,90
4,Cc1ccc(S(=O)(=O)N(Cc2cc(C(C)(C)C)c(O)c(C(C)(C)C)c2)c2cccnc2)cc1,121 to 123
5,Cc1[nH]c(C(=O)N2CCN(c3ccccc3)CC2)c(C)c1-c1nc2ccc(C(=O)c3ccccc3)cc2[nH]1,145 to 147
6,Nc1ccc(Sc2c(O)c3c(=O)n(-c4ccccc4)c4ccccc4c3oc2=O)cc1,> 300
7,COC(C(N)=S)c1ccccn1 (stereo unspecified),157 to 159
8,CC(C)SC1=C(C#N)C(c2ccccc2)(c2ccccc2)C(=O)N1,160
9,CC(C)(C)OC(=O)CCc1ccc(Cc2nnn(C(C)(C)C)n2)cc1,54 to 55
10,O=C(O)CCCC1C(=O)Nc2ccccc21 (stereo unspecified),79 to 80
11,NC(=O)c1ccccc1NC(=O)c1ccc(Cl)cc1,205 to 207
12,COc1cccc(OC2COc3ccc(O)cc3C2O)c1 (stereo unspecified),187 to 189
13,CC(C)(C)OC(=O)NC1CCCCCC=CC2CC2(C(=O)NS(=O)(=O)C2CC2)NC(=O)C2CC(OC(=O)c3ccc(Cl)cc3)CN2C1=O (stereo unspecified),143 to 145
14,CC1(C)OC(=O)Nc2ccc(-c3ccccc3-c3ncsn3)cc21,214 to 216
15,COc1cc2c(cc1OC)C1Cc3cc4c(cc3CC(=O)N1CC2)OCO4 (stereo unspecified),207 to 209
16,COc1ccc(OCC2SCCN2C(=O)CCl)cc1 (stereo unspecified),51 to 53
17,O=C(O)c1cnc2ccc(-c3ccc(C(F)(F)F)cc3)cn12,220
18,COc1cc(Nc2ncc(-c3ccccc3)o2)ccc1-c1cnco1,212 to 215
19,Cc1cn2c(nc1=O)CCCCC2,202
20,Cn1cc(Sc2ccccc2)c(=O)c(-c2ccccc2)c1,164 to 165
21,Cn1c(=O)c2[nH]c(C3CCSC3)nc2n(C)c1=O (stereo unspecified),217 to 219
22,O=C1NCC(CCl)C1(c1ccccc1)c1ccccc1 (stereo unspecified),218 to 219
23,CCOC(=O)c1cc(S)n2c(C)nnc2n1,206 to 208
24,COC(=O)c1snc(-c2ccccc2)c1C(=O)OC,70 to 71.5
25,O=C(NC(=O)c1c(Cl)cccc1Cl)Nc1ccc(-c2ccc(Cl)cc2)cn1,230 to 233
26,CC(C)OCCCNC(=O)CN1C(=O)C2(COc3cc4c(cc32)CCO4)c2ccccc21 (stereo unspecified),149 to 151

row,Compound,melting point [°C]
1,N#Cc1c(-c2cccc(N)c2)cc(-c2ccccc2O)nc1NC(=O)c1ccccc1,259 to 261
2,Cc1nnc2ccc(-c3cccc(NC=O)c3)nn12,265 to 268
3,COC(=O)C(C)(C)C(=O)Oc1ccc(C(=O)c2ccccc2)cc1,121 to 122
4,CN(C)c1nc2sc3c(NCCc4c[nH]cn4)ncnc3c2c2c1CCC2(C)C,261 to 262
5,Cc1c(F)cnc(N)c1F,92 to 93
6,Cc1noc(NS(=O)(=O)c2ccccc2-c2ccc(-c3ccno3)cc2)c1C,85 to 90
7,COc1ccc(NS(C)(=O)=O)cc1C(=O)O,160 to 163
8,O=[N+]([O-])c1cc(C2OCCCO2)ccc1O,70 to 71
9,NC(=O)NN=Cc1ccc(OCCc2coc(-c3ccccc3)n2)cc1,221 to 226
10,CCCc1cccc2c(/C=C(\C)C(=O)O)cc(OC)c(O)c12,67 to 68
11,CC(C)(C)c1cc(C=Cc2ccccc2NC(=O)NC2CCCCCC2)cc(C(C)(C)C)c1O,203 to 206
12,Cc1c(-c2ccccc2)sc2ncc(C(=O)C(C)C)c(O)c12,114 to 117
13,O=C(NO)C1C2CCC(CC2)C1S(=O)(=O)c1ccc(Oc2ccccc2)cc1 (stereo unspecified),89.9 to 91.8
14,Cc1nc(OC(F)F)c(C#N)c(N2CCc3ccccc3CC2)n1,143
15,COCCOc1cc(OCCOC)c2c(=O)[nH]c(-c3cc(C)nc(C)c3)nc2c1,150 to 151
16,CCn1c(Oc2cccc(N3CCNCC3)c2)nnc1[C@@H](C)NS(=O)(=O)c1ccc(Cl)c(Cl)c1,175 to 178
17,CCCCCCCCCCCCCCCCCCOc1ccc(C(=O)C(=O)OCC)cc1,46 to 48
18,COc1c(C(F)(F)F)cc([N+](=O)[O-])c(NN(C)C)c1[N+](=O)[O-],109 to 110
19,CCOC(=O)c1ccc(-c2ncc(C#Cc3ccccc3)s2)s1,137 to 141
20,COc1cc(N(C)C(C)C)ccc1CN1C(=O)C(C)(c2ccccc2Cl)c2cc(Cl)ccc21 (stereo unspecified),156
21,COc1cc(N)ccc1OC[C@H](O)C1CC1,71
22,Cc1ncoc1C(=O)Nc1ccc(-n2nc(C(F)(F)F)cc2C2CC2)c(F)c1,148 to 150
23,CC(C)COc1cc(N(C)C)ccc1C(=O)c1ccccc1C(=O)O,199 to 201
24,COC(=O)c1cc(Cl)c(NC(C)=O)cc1OC1CCOC1=O (stereo unspecified),118 to 119
25,COc1cc(OC)c(-c2cc3ccccc3n2C)cc1C=CC(=O)c1ccc(C(=O)O)cc1,157 to 160
26,CCNC(=O)c1ccccc1NC(C)(C)C,37 to 40

row,Compound,melting point [°C]
1,CCCNc1ccc2oc([N+](=O)[O-])c(-c3ccccc3)c2c1,158 to 160
2,CCC1(c2c[nH]cn2)Cc2ccc(N)cc2C1 (stereo unspecified),145 to 152
3,O=C(O)c1ccccc1OCCN1CCC(c2cn(CCCC3OCCO3)c3ccccc23)CC1,147 to 149
4,COc1cc2c(CCN)c[nH]c2cc1F,114 to 117
5,Oc1ccc(Cc2ccccc2)c2c1NCCC2,135 to 136
6,COc1ccc(S(=O)(=O)C(CCCc2ccccc2)(CCCc2ccccc2)C(=O)NO)cc1,118 to 120
7,Cc1ccccc1-c1c(N)c(=O)oc2cc3c(cc12)CCC3,275 to 276
8,c1ccc(Nc2ccncc2Oc2ccccc2)cc1,111 to 113
9,CCCOc1ccccc1-c1nc2cc(NC)ccc2c(=O)[nH]1,204 to 205
10,COc1ccc2[nH]c(=O)cc(CCCl)c2c1,231 to 232
11,COCCOc1cc2ncnc(NC3=CC(=O)C(N4CCOCC4)=CC3=O)c2cc1OC,239 to 243
12,O=C1c2ccccc2C(=O)N1OCC=Cc1ccc(Br)cc1,161 to 162
13,CC(c1ccc(-c2ccccc2)c(F)c1)c1nc(N)no1 (stereo unspecified),174 to 175
14,CCCNC(=O)NNC(=O)c1ccc(OC)cc1,176 to 179
15,CCOC(=O)CCc1ccccc1CNC(=O)C1Cc2ccccc2N1S(=O)(=O)c1ccc(-c2cccc(C(F)(F)F)c2)cc1 (stereo unspecified),48
16,Nc1ccc(Sc2ccc(Cl)cc2)nc1,55 to 57
17,Cc1ccc(Sc2cncc3sc(C(=O)O)cc23)cc1,272 to 274
18,COc1cc2c(cc1C(F)(F)F)N(C(=O)Nc1ccc3c(ccn3Cc3cccnc3)c1)CC2,243 to 246
19,CCS(=O)c1nc(N2CCNCC2)c2sc3nc(-c4ccccc4)cc(C)c3c2n1 (stereo unspecified),165 to 170
20,CC1(C)Oc2cc(Br)sc2C(N2CCCC2=O)C1O (stereo unspecified),162 to 165
21,O=C1CCCc2c1c1cc(F)ccc1n2Cc1ccc(F)cc1,182 to 183
22,Nc1c([N+](=O)[O-])sc2c(F)cccc12,238 to 240
23,O=c1c(CCCc2ccccn2)cc2cccnc2n1-c1cccc([N+](=O)[O-])c1,201 to 202
24,Brc1cc(Br)cc(Cc2cccnc2)c1,70 to 72
25,COc1c(N)cc(-c2c3ccccc3c(Br)c3sc(C)c(C)c23)cc1Br,198 to 200
26,CC(=O)OCC1OC(OC2C(COC(C)=O)OC(Sc3ccc(N)cc3)C(OC(C)=O)C2OC(C)=O)C(OC(C)=O)C(OC(C)=O)C1OC(C)=O (stereo unspecified),145 to 148

row,Compound,melting point [°C]
1,N=C(N)Nc1cc(Cl)ccc1N1CCOCC1,135 to 138
2,COc1ccc(Br)cc1-c1nc(N)nc(N)n1,294 to 297
3,O=CNc1cc(F)ccc1F,112 to 114
4,Cc1ccc(S(=O)(=O)N(Cc2ccccc2)N(C)C(=O)C2CC(S)CN2S(=O)(=O)c2ccc3ccccc3c2)cc1 (stereo unspecified),82.5
5,O=C1Nc2ccccc2N2CCN(CCc3ccccn3)CC12 (stereo unspecified),167 to 169
6,CCOCc1nc2c(N)nc(C)c(C)c2n1NC1CCOCC1,120 to 122
7,CCC1(CSc2ccccc2C(=O)c2ccccc2)COC(=O)N1 (racemic),103 to 104
8,CCc1cc(=O)c2nc(OC(C)C)c(Cl)cc2[nH]1,231 to 235
9,CC(C)(C)c1cccc(C[C@H](N)[C@H](O)c2cccc(Cl)c2)c1 (racemic),102 to 103
10,CC(=O)Nc1cc(I)ccc1C(=O)O,229 to 232
11,Cc1c(NC(=O)c2ccc(OCc3ccccc3F)cc2)ccc2cc(CN3CCCC3)cnc12,104 to 105
12,COc1cc(CCCS2(OCC(=O)O)C=CN=C2)cc(OCc2ccc3ccccc3c2)c1 (stereo unspecified),160 to 161
13,CN(C)c1ccc(CC(=O)Nc2cc(CC3SC(=O)NC3=O)ccc2O)cc1 (stereo unspecified),216 to 218
14,Cc1c(C)c2c(c(C)c1N)OC(C)(C)C2=O,150 to 151
15,"CCCCCCOc1ccc(C(=O)NCC2CCCC2(C)C)cc1 (single isomer, unassigned; (+))",68 to 69
16,CC1(C)CC(=O)C2=C(C1)NC1=C(C(=O)CC(C)(C)C1)C2c1cccc(Oc2ccncc2)c1,186 to 188
17,O=C(Cc1cc(F)ccc1F)N1CCNc2ncc(I)cc21,152 to 153
18,CCN1CCCC1CNC(=O)c1sc(C=O)c(C)c1OC (stereo unspecified),122 to 123
19,Cn1cnc2c(cnn2-c2ncc(C(F)(F)F)cc2Cl)c1=O,253
20,O=c1[nH]c2cc(Cl)ccc2c(=O)n1CCCN1CC=C(c2ccc(Cl)cc2)CC1,225 to 227
21,CN1CC(OC(=O)C(c2ccccc2)c2ccccc2)CNC1=N[N+](=O)[O-] (stereo unspecified),187
22,CCOC(=O)c1c(CN2CCOCC2)nc2cc(OC)c(OC)cc2c1-c1ccc(OC)cc1,165 to 166
23,CCCCCOC(=O)Cc1sc(F)c(N=c2sc(=O)n3n2CCCC3)c1Cl,39 to 41
